Legend:
PAPP-A2 = PAPP-A2 (Homo sapiens, UniProt Q9BXP8)
Procedure: Medium from 293T cells transfected with empty vector (lane 1), cDNA encoding PAPP-A2 with an inactivating E734Q mutation (pPA2-KO) (lane 2), or cDNA encoding wild-type PAPP-A2 (pPA2) (lanes 3-6) was incubated with C-terminally c-myc tagged rIGFBP-5. Proteolytic activity was assessed by Western blotting using anti-c-myc. ‘i’ denotes intact rIGFBP-5; ‘c’ denotes the detectable C-terminal c-myc tagged cleavage product.
Briefly, recombinant IGFBP-5 as contained in 5 microL cell culture medium was incubated with culture supernatants (10 microL) from cells transfected with pPA2, pPA2-KO, or empty expression vectors (see U.S. Pat. No. 7,083,940). Phosphate buffered saline was added to a final volume of 50 microL. After incubation at 37 degrees Celsius for 12 hours, 15 microL of the reaction mixture was separated by reducing 16% SDS-PAGE, blotted onto a PVDF membrane, and the C-terminal cleavage product was detected with monoclonal anti-c-myc (clone 9E19, ATTC) using peroxidase-conjugated secondary antibodies (P260, DAKO), and enhanced chemiluminescence (ECL, Amersham).

IGFBP-5 = assay: Activity of PAPP-A2 against IGFBPs, ligand blotting using radiolabeled IGF-II; format: biochemical; conditions: medium from 293T cells transfected with pPA2
Procedure: (§1) Ligand blotting (Conover et al., 1993, J Clin Invest 91, 1129-37) with radiolabeled IGF-II (Bachem) was used to assay for activity against IGFBP-1 (from HepG2 conditioned medium), rIGFBP-2 (GroPep), rIGFBP-3 (gift of D. Powell), rIGFBP-4 (Austral), rIGFBP-5 (gift of D. Andress), and rIGFBP-6 (Austral). […] IGFBP-3 was partially degraded (FIG. 10). This cleavage was independent of the presence of IGF. Experiments were carried out with media from cells transfected with pPA2 or empty vector.
(§2) Medium from 293T cells transfected with empty vector (−), or cDNA encoding PAPP-A2 (pPA2) (+) was incubated with each of the six IGFBPs (BP1-BP6), and the activity was assessed by ligand blotting using radiolabeled IGF-II.

IGFBP-3 = assay: as above; format: biochemical; conditions: medium from 293T cells transfected with pPA2
Procedure: as §1, §2

rIGFBP-5 = assay: Proteolytic activity of PAPP-A2 against IGFBP-5, Western blotting using anti-c-myc; format: biochemical, human; conditions: absence of inhibitors; medium from 293T cells transfected with pPA2

Chain of PAPP-A2 (Q9BXP8 234-1791 limits assumed): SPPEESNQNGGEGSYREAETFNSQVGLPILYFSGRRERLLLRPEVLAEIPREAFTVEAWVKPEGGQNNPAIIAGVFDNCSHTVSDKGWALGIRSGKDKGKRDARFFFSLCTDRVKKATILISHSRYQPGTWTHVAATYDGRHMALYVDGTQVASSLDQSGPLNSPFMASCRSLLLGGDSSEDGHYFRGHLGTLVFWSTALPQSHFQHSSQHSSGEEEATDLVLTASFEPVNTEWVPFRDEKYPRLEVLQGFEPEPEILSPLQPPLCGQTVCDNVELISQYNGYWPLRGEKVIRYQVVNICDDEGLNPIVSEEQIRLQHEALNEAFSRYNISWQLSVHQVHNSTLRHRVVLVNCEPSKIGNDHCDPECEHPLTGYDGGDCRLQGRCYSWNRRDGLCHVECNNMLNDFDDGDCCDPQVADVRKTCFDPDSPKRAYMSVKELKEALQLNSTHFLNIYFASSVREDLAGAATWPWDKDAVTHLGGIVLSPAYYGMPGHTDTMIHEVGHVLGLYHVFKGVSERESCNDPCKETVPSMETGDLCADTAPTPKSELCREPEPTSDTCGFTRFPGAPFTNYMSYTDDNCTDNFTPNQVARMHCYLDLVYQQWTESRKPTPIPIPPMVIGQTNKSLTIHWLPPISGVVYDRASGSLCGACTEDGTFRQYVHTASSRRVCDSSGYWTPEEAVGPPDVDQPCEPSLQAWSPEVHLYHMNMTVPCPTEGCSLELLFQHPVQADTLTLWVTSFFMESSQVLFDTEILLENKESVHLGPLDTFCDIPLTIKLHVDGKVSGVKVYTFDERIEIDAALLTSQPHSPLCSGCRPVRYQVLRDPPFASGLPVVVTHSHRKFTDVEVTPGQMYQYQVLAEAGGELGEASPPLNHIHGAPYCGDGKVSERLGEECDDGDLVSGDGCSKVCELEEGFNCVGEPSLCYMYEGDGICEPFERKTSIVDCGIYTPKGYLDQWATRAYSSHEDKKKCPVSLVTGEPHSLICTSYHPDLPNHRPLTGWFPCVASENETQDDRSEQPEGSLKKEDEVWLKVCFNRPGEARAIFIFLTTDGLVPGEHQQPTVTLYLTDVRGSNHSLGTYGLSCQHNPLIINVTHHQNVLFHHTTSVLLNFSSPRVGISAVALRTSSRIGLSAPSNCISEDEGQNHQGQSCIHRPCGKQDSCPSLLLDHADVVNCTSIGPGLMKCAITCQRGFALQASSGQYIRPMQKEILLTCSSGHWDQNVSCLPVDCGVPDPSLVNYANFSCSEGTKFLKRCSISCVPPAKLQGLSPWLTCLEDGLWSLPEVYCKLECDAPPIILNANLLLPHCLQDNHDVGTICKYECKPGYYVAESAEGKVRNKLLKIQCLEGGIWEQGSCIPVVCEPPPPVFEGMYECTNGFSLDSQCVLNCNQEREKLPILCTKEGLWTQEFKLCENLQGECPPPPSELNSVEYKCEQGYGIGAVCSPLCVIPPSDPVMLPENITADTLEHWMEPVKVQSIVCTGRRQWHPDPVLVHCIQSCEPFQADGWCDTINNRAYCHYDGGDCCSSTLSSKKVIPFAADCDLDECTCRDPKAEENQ

Compound | PAPP-A2 activity (degradation of rIGFBP-5) (PAPP-A2) | Cleavage of IGFBP-5 (IGFBP-5) | Degradation of IGFBP-3 (IGFBP-3) | Degradation of rIGFBP-5 (rIGFBP-5)
O=c1oc(Cl)c(Cl)c2ccccc12 [3,4-DCI] | not affected | – | – | –
PAPP-A2: recombinant wild-type PAPP-A2 metalloproteinase in medium from 293T cells transfected with cDNA (pPA2) | – | Complete cleavage | Partial degradation | degraded all rIGFBP-5
c1cnc2c(c1)ccc1cccnc12 [phenanthroline] | abolished | – | – | –

From patent US20140141456A1, “PAPP-A2 AS A MARKER FOR MONITORING, PREDICTING AND DIAGNOSING PREECLAMPSIA” (Ansh Labs, LLC, priority 2012, published 2014)
